Assay results published in BindingDB's records for doi:10.1016/j.bmcl.2018.01.029 (Presidio Pharmaceuticals, 2018).

Tests used:
[1] = Inhibition of HCV genotype 1a NS5A polymerase L31V/Y93H double mutant infected in human HuH7 replicon cells by luciferase reporter gene assay
[2] = Inhibition of HCV genotype 1a NS5A polymerase infected in human HuH7 replicon cells by luciferase reporter gene assay
[3] = Inhibition of HCV genotype 1b NS5B polymerase infected in human HuH7 replicon cells by luciferase reporter gene assay
[4] = Inhibition of HCV genotype 4a NS5B polymerase infected in human HuH7 replicon cells by luciferase reporter gene assay
[5] = Inhibition of HCV genotype 3a NS5B polymerase infected in human HuH7 replicon cells by luciferase reporter gene assay
[6] = Inhibition of HCV genotype 2a NS5B polymerase infected in human HuH7 replicon cells by luciferase reporter gene assay

SMILES	EC50 [1]	EC50 [2]	EC50 [3]	EC50 [4]	EC50 [5]	EC50 [6]
CNC(=O)c1c(-c2ccc(F)cc2)oc2cc3c(cc12)C(C)NC(=O)CN3S(C)(=O)=O (configuration not stated)	14 nM	19 nM	15 nM			
CNC(=O)c1c(-c2ccc(F)cc2)oc2cc3c(cc12)[C@H](C)n1nncc1CN3S(C)(=O)=O			3 nM			
CNC(=O)c1c(-c2ccc(F)cc2)oc2cc3c(cc12)C(C)OC(CO)CN3S(C)(=O)=O (configuration not stated)		52 nM	12 nM	32 nM	20 nM	62 nM
CNC(=O)c1c(-c2ccc(F)cc2)oc2cc3c(cc12)CCCCN3C(=O)OC	722 nM		164 nM			
CNC(=O)c1c(-c2ccc(F)cc2)oc2cc3c(cc12)[C@H](C)OCCN3S(C)(=O)=O	9 nM		3 nM			
CNC(=O)c1c(-c2ccc(F)cc2)oc2cc3c(cc12)C1(CCCN3S(C)(=O)=O)CC1	118 nM		20 nM			
CNC(=O)c1c(-c2ccc(Oc3ccc(F)cc3)cc2)oc2cc3c(cc12)C(C)CCCN3S(C)(=O)=O (configuration not stated)	71 nM		14 nM			
CNC(=O)c1c(-c2ccc(F)cc2)oc2cc3c(cc12)[C@H](C)CCCN3S(C)(=O)=O	9 nM	10 nM	4 nM			
CCNC(=O)c1c(-c2ccc(F)cc2)oc2cc3c(cc12)CCCCN3S(C)(=O)=O		> 2000 nM				
CNC(=O)c1c(-c2ccc(F)cc2)oc2cc3c(cc12)C(C)n1nnnc1CN3S(C)(=O)=O (configuration not stated)		33 nM	8 nM			
CNC(=O)c1c(-c2ccc(F)cc2)oc2cc3c(cc12)C(C)OC1(CC1)CN3S(C)(=O)=O (configuration not stated)		130 nM	19 nM			
CNC(=O)c1c(-c2ccc(F)cc2)oc2cc3c(cc12)C(C)OCCN3S(C)(=O)=O (configuration not stated)	21 nM	28 nM	11 nM			
CNC(=O)c1c2cc3c(cc2nn1-c1ccc(F)cc1)N(S(C)(=O)=O)CCCC3C (configuration not stated)		> 2000 nM				
CS(=O)(=O)N1CCCCc2cc3c(C(=O)NC4CC4)c(-c4ccc(F)cc4)oc3cc21	> 2000 nM					
CN(C)C(=O)c1c(-c2ccc(F)cc2)oc2cc3c(cc12)CCCCN3S(C)(=O)=O	> 2000 nM					
CNC(=O)c1c(-c2ccc(F)cc2)oc2cc3c(cc12)[C@H](C)OC1(CC1)CN3S(C)(=O)=O		93 nM	13 nM			
CNC(=O)c1c(-c2ccc(F)cc2)oc2cc3c(cc12)C(C)n1ccnc1CN3S(C)(=O)=O (configuration not stated)		26 nM	74 nM			

SMILES	EC50 [1]	EC50 [2]	EC50 [3]	EC50 [4]	EC50 [5]	EC50 [6]
CNC(=O)c1c(-c2ccc(F)cc2)oc2cc3c(cc12)C(=O)CCCN3S(C)(=O)=O	318 nM		78 nM			
CNC(=O)c1c(-c2ccc(F)cc2)nn2cc3c(cc12)C(C)CCCN3S(C)(=O)=O (configuration not stated)	523 nM		109 nM			
CNC(=O)c1c(-c2ccc(F)cc2)oc2cc3c(cc12)[C@@H](C)n1nncc1CN3S(C)(=O)=O			38 nM			
CNC(=O)c1c(-c2ccc(F)cc2OC)oc2cc3c(cc12)C(C)CCCN3S(C)(=O)=O (configuration not stated)	> 2000 nM		56 nM			
CNC(=O)c1c(-c2ccc(F)cc2)oc2cc3c(cc12)[C@H]1C[C@H]1CCN3S(C)(=O)=O	> 2000 nM		> 2000 nM			
CS(=O)(=O)N1CCCCc2cc3c(C(=O)NC#N)c(-c4ccc(F)cc4)oc3cc21	> 2000 nM					
CNC(=O)c1c(-c2ccc(F)cc2)oc2cc3c(cc12)[C@H](C)O[C@H](CO)CN3S(C)(=O)=O		9 nM	3 nM	9 nM	6 nM	12 nM
CNC(=O)c1c(-c2ccc(F)cc2)oc2cc3c(cc12)C(C)OCC(CS(C)(=O)=O)N3S(C)(=O)=O (configuration not stated)		16 nM	19 nM	51 nM	70 nM	134 nM
CNC(=O)c1c(-c2ccc(F)cc2)oc2cc3c(cc12)C(O)CCCN3S(C)(=O)=O (configuration not stated)	730 nM		107 nM			
CNC(=O)c1c(-c2ccc(F)cc2)oc2cc3c(cc12)[C@H](C)NC(=O)CN3S(C)(=O)=O			5 nM			
CS(=O)(=O)N1CCCCc2cc3c(-c4ncc[nH]4)c(-c4ccc(F)cc4)oc3cc21	59 nM	33 nM	5 nM			
CNC(=O)c1c(-c2ccc(F)cc2)oc2cc3c(cc12)[C@H](C)N(C)C(=O)CN3S(C)(=O)=O		102 nM	13 nM			
CNC(=O)c1c(-c2ccc(F)cc2)oc2cc3c(cc12)[C@H](C)O[C@@H](CO)CN3S(C)(=O)=O		64 nM	13 nM			
CNC(=O)c1c(-c2ccc(F)cc2)oc2cc3c(cc12)[C@@H](C)N(C)C(=O)CN3S(C)(=O)=O		688 nM	59 nM			
CONC(=O)c1c(-c2ccc(F)cc2)oc2cc3c(cc12)CCCCN3S(C)(=O)=O	90 nM		31 nM			
CNC(=O)c1c(-c2ccc(F)cc2)oc2cc3c(cc12)[C@@H](C)O[C@@H](CS(C)(=O)=O)CN3S(C)(=O)=O		> 2000 nM	1210 nM			
CS(=O)(=O)NC(=O)c1c(-c2ccc(F)cc2)oc2cc3c(cc12)CCCCN3S(C)(=O)=O	> 2000 nM					
